Reference: ChEMBL document CHEMBL5625204, “Synthesis and pharmacodynamic evaluation of naphthalene derivatives against influenza A virus in vitro and in vivo” (Eur J Med Chem, 2023)
The source made the active and inactive calls. The calls are words filed in the database; no cut-off is given here.

Assays:
Influenza A virus [1] = test: Antiviral activity against Influenza A virus H1N1 (A/Weiss/43) infected in MDCK cells assessed as reduction of viral replication at 0.625 to 100 uM incubated for 72 hrs by TCID50 method; assay type: functional, organism-based; settings: dose 0.625-100 µM
[2] = Cytotoxicity against dog MDCK cells assessed as reduction in cell viability incubated for 72 hrs by MTT assay; assay type: toxicity, cell-based, Canis lupus familiaris
[3] = Selectivity index, ratio of CC50 for dog MDCK cells to EC50 for antiviral activity against Influenza A virus H1N1 (A/Weiss/43) infected in MDCK cells treated for 72 hrs after viral adsorption; assay type: toxicity, cell-based; settings: read-out: Ratio CC50/EC50
Influenza A virus [4] = test: Antiviral activity against Influenza A virus H1N1 (A/Weiss/43) infected in MDCK cells assessed as reduction of viral replication treated for 72 hrs after viral adsorption by TCID50 method; assay type: functional, organism-based
Influenza A virus [5] = test: Inhibition of Influenza A virus Neuraminidase at 100 to 300 uM pretreated with enzyme for 5 mins followed by fluorogenic substrate addition and measured for 1 hr by fluorescence based analysis; settings: dose 100-300 µM, time 65.0 min
Influenza A virus [6] = test: Antiviral activity against Influenza A virus H1N1 (A/Virginia/ATCC2/2009) infected in MDCK cells assessed as reduction of viral replication incubated for 72 hrs by TCID50 method; assay type: functional, organism-based
[7] = Selectivity index, ratio of CC50 for dog MDCK cells to EC50 for antiviral activity against Influenza A virus H3N2 (A/California/2004) infected in MDCK cells; assay type: toxicity, cell-based; settings: read-out: Ratio CC50/EC50
Influenza A virus [8] = test: Antiviral activity against Influenza A virus H1N1 (A/Weiss/43)-infected in BALB/c mouse assessed as reduction in pulmonary inflammation at 50 mg/kg/day administered intranasally for 6 days starting from 3 hrs post-viral infection by Hematoxylin-Eosin staining based analysis; assay type: functional, organism-based; settings: route nas, time 6.0 day
Influenza A virus [9] = test: Antiviral activity against Influenza A virus H1N1 (A/Weiss/43)-infected in BALB/c mouse assessed as reduction in lung index at 50 mg/kg/day administered intranasally for 6 days starting from 3 hrs post-viral infection; assay type: functional; settings: 144 h, route nas, time 6 day
Influenza A virus [10] = test: Antiviral activity against Influenza A virus H3N2 (A/California/2004) infected in MDCK cells assessed as reduction of viral replication incubated for 72 hrs by TCID50 method; assay type: functional, organism-based
[11] = Selectivity index, ratio of CC50 for dog MDCK cells to EC50 for antiviral activity against Influenza A virus H1N1 (A/Virginia/ATCC2/2009) infected in MDCK cells; assay type: toxicity, cell-based; settings: read-out: Ratio CC50/EC50

## C=CCN(c1cc2ccccc2c2ccccc12)S(=O)(=O)c1ccc(C)cc1
Influenza A virus [1]
  Activity: inactive
[2]
  CC50 at 72 h: 61.2 µM

## CS(=O)(=O)Nc1cc2ccccc2c2ccccc12
Influenza A virus [1]
  Activity: inactive
[2]
  CC50 at 72 h: 73.4 µM

## O=C1OCCN1c1cc2ccccc2c2ccccc12
Influenza A virus [1]
  Activity: inactive
[2]
  CC50 at 72 h: 212 µM

## Cc1ccc(S(=O)(=O)Nc2cc3ccccc3c3ccc(-c4ccccc4)cc23)cc1
Influenza A virus [1]
  Activity: inactive
[2]
  CC50 at 72 h: > 800 µM

## O=[N+]([O-])c1ccc(S(=O)(=O)N(Cc2ccccc2)C2=CCCc3ccccc32)cc1
Influenza A virus [1]
  Activity: inactive
[2]
  CC50 at 72 h: > 800 µM

## Cc1ccc(S(=O)(=O)N(Cc2ccccc2)c2cc3ccccc3c3cc(Cl)ccc23)cc1
Influenza A virus [1]
  Activity: inactive
[2]
  CC50 at 72 h: 2330 µM

## O=[N+]([O-])c1ccc(S(=O)(=O)N(Cc2ccccc2)c2cc3ccccc3c3ccccc23)cc1
Influenza A virus [1]
  Activity: inactive
[2]
  CC50 at 72 h: 726 µM

## Cc1ccc(S(=O)(=O)N(Cc2ccccc2)C2=CCOc3ccccc32)cc1
[3]
  selectivity ratio at 72 h: 16.6
Influenza A virus [4]
  EC50: 76.6 µM
[2]
  CC50 at 72 h: 1270 µM

## CCCCN(C1=CCCc2ccccc21)S(=O)(=O)c1ccc(C)cc1
[3]
  selectivity ratio at 72 h: 29.3
Influenza A virus [4]
  EC50: 39.8 µM
[2]
  CC50 at 72 h: 1170 µM

## Cc1ccc(S(=O)(=O)Nc2cc3ccccc3c3cc(C)ccc23)cc1
Influenza A virus [1]
  Activity: inactive
[2]
  CC50 at 72 h: 227 µM

## Cc1ccc(S(=O)(=O)N(c2ccccc2)c2cc3ccccc3c3ccccc23)cc1
Influenza A virus [1]
  Activity: inactive
[2]
  CC50 at 72 h: > 800 µM

## Cc1ccc(S(=O)(=O)N(Cc2ccccc2)c2cc3ccccc3c3ccc(Cl)cc23)cc1
Influenza A virus [1]
  Activity: inactive
[2]
  CC50 at 72 h: > 800 µM

## O=S(=O)(c1ccc(Cl)cc1)N(Cc1ccccc1)c1cccc2ccccc12
Influenza A virus [1]
  Activity: inactive
[2]
  CC50 at 72 h: > 800 µM

## Cc1ccc(S(=O)(=O)N(Cc2ccccc2)c2cc3ccccc3c3ccccc23)cc1
Influenza A virus [1]
  Activity: inactive
[2]
  CC50 at 72 h: > 800 µM

## O=C1OCCN1c1cccc2ccccc12
Influenza A virus [1]
  Activity: inactive
[2]
  CC50 at 72 h: > 800 µM

## Cc1ccc(S(=O)(=O)N(Cc2ccccc2)c2cccc3ccccc23)cc1
Influenza A virus [1]
  Activity: inactive
[2]
  CC50 at 72 h: 1370 µM

## CC(=O)c1ccc2c(c1)c(N(Cc1ccccc1)S(=O)(=O)c1ccc(C)cc1)cc1ccccc12
Influenza A virus [1]
  Activity: inactive
[2]
  CC50 at 72 h: 382 µM

## COc1ccc(S(=O)(=O)N(Cc2ccccc2)c2cc3ccccc3c3ccccc23)cc1
Influenza A virus [1]
  Activity: inactive
[2]
  CC50 at 72 h: 288 µM

## Cc1ccc(S(=O)(=O)N(Cc2ccccc2)c2cc3ccccc3c3ccc4ccsc4c23)cc1
Influenza A virus [1]
  Activity: inactive
[2]
  CC50 at 72 h: 1420 µM

## O=C1OCCN1C1=CCCc2ccccc21
Influenza A virus [1]
  Activity: inactive
[2]
  CC50 at 72 h: 301 µM

## Cc1ccc(S(=O)(=O)N(Cc2ccccc2)c2cc3ccccc3c3ccc4ccccc4c23)cc1
Influenza A virus [1]
  Activity: inactive
[2]
  CC50 at 72 h: > 800 µM

## COc1ccc(S(=O)(=O)N(Cc2ccccc2)c2cccc3ccccc23)cc1
Influenza A virus [1]
  Activity: inactive
[2]
  CC50 at 72 h: > 800 µM

## Cc1ccc(S(=O)(=O)N(C2=CCCc3ccccc32)c2ccccc2)cc1
Influenza A virus [1]
  Activity: inactive
[2]
  CC50 at 72 h: 1210 µM

## Cc1ccc(S(=O)(=O)N(Cc2ccccc2)c2cc3ccccc3c3cc(C)ccc23)cc1
Influenza A virus [1]
  Activity: inactive
[2]
  CC50 at 72 h: > 800 µM

## Cc1ccc(S(=O)(=O)N(Cc2ccccc2)c2cc3ccccc3c3ccc(-c4ccccc4)cc23)cc1
Influenza A virus [1]
  Activity: inactive
[2]
  CC50 at 72 h: > 800 µM

## O=S(=O)(c1ccc(Cl)cc1)N(Cc1ccccc1)c1cc2ccccc2c2ccccc12
[3]
  selectivity ratio at 72 h: > 26.7
Influenza A virus [4]
  EC50: 30.1 µM
[2]
  CC50 at 72 h: > 800 µM

## COc1ccc2c(c1)c(N(Cc1ccccc1)S(=O)(=O)c1ccc(C)cc1)cc1ccccc12
[3]
  selectivity ratio at 72 h: > 36.8
Influenza A virus [4]
  EC50: 21.8 µM
[2]
  CC50 at 72 h: > 800 µM

## Cc1ccc(S(=O)(=O)N(Cc2ccccc2)c2cc3ccccc3c3ccc(F)cc23)cc1
Influenza A virus [1]
  Activity: inactive
[2]
  CC50 at 72 h: 1040 µM

## Cc1ccc(S(=O)(=O)N(Cc2ccccc2)c2cc3ccccc3c3ccc(C)cc23)cc1
[3]
  selectivity ratio at 72 h: > 22
Influenza A virus [4]
  EC50: 36.4 µM
[2]
  CC50 at 72 h: > 800 µM

## COC(=O)c1ccc2c(c1)c(N(Cc1ccccc1)S(=O)(=O)c1ccc(C)cc1)cc1ccccc12
Influenza A virus [1]
  Activity: inactive
[2]
  CC50 at 72 h: 3670 µM

## Cc1ccc(S(=O)(=O)N(C)c2cc3ccccc3c3ccccc23)cc1
Influenza A virus [1]
  Activity: inactive
[2]
  CC50 at 72 h: 3120 µM

## CCCCN(c1cccc2ccccc12)S(=O)(=O)c1ccc(C)cc1
Influenza A virus [1]
  Activity: inactive
[2]
  CC50 at 72 h: 311 µM

## COc1ccc2c(c1)c(NS(=O)(=O)c1ccc(C)cc1)cc1ccccc12
[3]
  selectivity ratio at 72 h: > 11.5
Influenza A virus [4]
  EC50: 69.5 µM
[2]
  CC50 at 72 h: > 800 µM

## O=S(=O)(c1ccc(Cl)cc1)N(Cc1ccccc1)C1=CCCc2ccccc21
Influenza A virus [1]
  Activity: inactive
[2]
  CC50 at 72 h: > 800 µM

## Cc1ccc(S(=O)(=O)N(Cc2ccccc2)C2=CCCc3ccccc32)cc1
Influenza A virus [1]
  Activity: inactive
[2]
  CC50 at 72 h: 1170 µM

## Cc1ccc(S(=O)(=O)N(Cc2ccccc2)c2cc3ccc(C)cc3c3ccccc23)cc1
Influenza A virus [1]
  Activity: inactive
[2]
  CC50 at 72 h: > 800 µM

## CS(=O)(=O)N(Cc1ccccc1)c1cc2ccccc2c2ccccc12
Influenza A virus [1]
  Activity: inactive
[2]
  CC50 at 72 h: > 800 µM

## C=CCN(C1=CCCc2ccccc21)S(=O)(=O)c1ccc(C)cc1
Influenza A virus [1]
  Activity: inactive
[2]
  CC50 at 72 h: 127 µM

## C=CCN(c1cccc2ccccc12)S(=O)(=O)c1ccc(C)cc1
Influenza A virus [1]
  Activity: inactive
[2]
  CC50 at 72 h: 620 µM

## CS(=O)(=O)N(C1=CCCc2ccccc21)c1ccccc1
[3]
  selectivity ratio at 72 h: 6.78
Influenza A virus [4]
  EC50: 50.8 µM
[2]
  CC50 at 72 h: 345 µM

## COc1ccc(S(=O)(=O)N(Cc2ccccc2)C2=CCCc3ccccc32)cc1
Influenza A virus [1]
  Activity: inactive
[2]
  CC50 at 72 h: > 800 µM

## Cc1ccc(S(=O)(=O)N(c2ccccc2)c2cccc3ccccc23)cc1
Influenza A virus [1]
  Activity: inactive
[2]
  CC50 at 72 h: 1160 µM

## CCOC(=O)C1=C[C@@H](OC(CC)CC)[C@H](NC(C)=O)[C@@H](N)C1 [OSELTAMIVIR]
Influenza A virus [5]
  inhibition: Active
[3]
  selectivity ratio at 72 h: > 471
Influenza A virus [6]
  EC50: 1710 nM
Influenza A virus [4]
  EC50: 1.7 µM
[7]
  selectivity ratio: > 136
Influenza A virus [8]
  Activity: Active
Influenza A virus [9]
  inhibition in vivo at 50 mg/kg/day: 33.1%
[2]
  CC50 at 72 h: > 800 µM
Influenza A virus [10]
  EC50: 5.9 µM
[11]
  selectivity ratio: > 468

## Cc1ccc(S(=O)(=O)N(C)c2cccc3ccccc23)cc1
Influenza A virus [1]
  Activity: inactive
[2]
  CC50 at 72 h: > 800 µM
